Like-named read-outs stand apart in the source and are kept apart here. Blank lines part the entries; values can stand above or below the compound they belong to.
Legend:
Format in all cases: binding
[1] = biological target: T1, BRD9 (bromodomain-containing protein 9) (Homo sapiens, UniProt Q9H8M2); assay: ITC with purified BRD9 (N = […]); BROMOscan […] inhibition at […]
T1 sequence (Q9H8M2 1-597): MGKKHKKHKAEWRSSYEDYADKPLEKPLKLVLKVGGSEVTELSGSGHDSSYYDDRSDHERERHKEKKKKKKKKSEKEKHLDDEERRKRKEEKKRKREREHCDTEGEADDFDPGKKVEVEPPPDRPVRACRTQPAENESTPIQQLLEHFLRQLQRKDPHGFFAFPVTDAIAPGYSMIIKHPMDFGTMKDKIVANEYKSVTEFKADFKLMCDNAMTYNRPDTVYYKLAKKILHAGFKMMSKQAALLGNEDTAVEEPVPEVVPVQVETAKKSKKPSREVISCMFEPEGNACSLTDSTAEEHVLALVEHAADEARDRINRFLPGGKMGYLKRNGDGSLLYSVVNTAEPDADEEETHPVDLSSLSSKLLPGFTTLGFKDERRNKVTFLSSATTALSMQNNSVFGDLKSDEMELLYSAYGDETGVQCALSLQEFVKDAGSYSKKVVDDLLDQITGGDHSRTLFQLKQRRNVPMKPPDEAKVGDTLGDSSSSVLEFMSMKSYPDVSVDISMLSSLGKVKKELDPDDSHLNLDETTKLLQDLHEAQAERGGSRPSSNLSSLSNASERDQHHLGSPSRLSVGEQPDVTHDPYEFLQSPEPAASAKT

[2] = biological target: T1, BRD9 (bromodomain-containing protein 9); assay: as above; remark: listed apart in the source
[3] = biological target: T1, BRD9 (bromodomain-containing protein 9); assay: BROMOscan at […], blinded positive control

SMILES: O=C(CCc1ccc(O)c(O)c1)c1c(O)cc(O)c([C@@H]2O[C@H](CO)[C@@H](O)[C@H](O)[C@H]2O)c1O [Aspalathin]
Kd [1]: 20 µM

SMILES: O=c1cc(-c2ccc(O)c(O)c2)oc2c([C@@H]3O[C@H](CO)[C@@H](O)[C@H](O)[C@H]3O)c(O)cc(O)c12 [Orientin]
Kd [2]: 20 µM

inhibition at 10 µM [3]: 99%
SMILES: CCn1cc(-c2cccc(C(F)(F)F)c2)c2sc(C(=N)NC3CCS(=O)(=O)CC3)cc2c1=O [iBRD9]
